According to patent publication US10793527B2, “Adenosine monophosphate-activated protein kinase agonist” (NATIONAL YANG-MING UNIVERSITY, priority 2016, dated 2020):

Key:
[1] = molecular target: recombinant protein human AMPK (α1, β1, γ1) (Homo sapiens, UniProt Q13131); experiment: AMPK enzyme activity assay (SAMS peptide), recombinant protein; assay type: biochemical; details: 20-2,000 nM compound; compared with the group without compound addition (FIG. 1B)
Description: (§1) The protein extract of liver cancer cell PLC5 and the anti-AMPKα1 antibody were incubated in an immunoprecipitation buffer (G-Biosciences) overnight. Protein A/G Magnetic Beads (PureProteome™) are added to each sample respectively and incubated at 4° C. for 4 hours. In the case of the recombinant protein AMPK, 12.5 ng of the recombinant protein human AMPK (α1, β1, γ1) is incubated with various doses of the compound, and then AMPK activities are detected based on the manual of the SAMS peptide assay (Cyclex).
(§2) It is shown by FIGS. 1A and 1B that the SCT-1015 compound can increase the activity of AMPK in liver cancer cells.

AMPK T172 = experiment: Detection of AMPK phosphorylation by ELISA assay in PLC5 cells; assay type: cell-based; details: PLC5 cultured with 10 μM compound for 24 hours, compared to control group
Description: In this analysis, the commercial kit AMPK […] Phospho-ELISA Kit (KHO0651) produced by ThermoFisher Science is utilized. The hepatoma cell PLC5 is cultured with 10 μM of the compound for 24 hours, and the analysis is performed according to the manual, and the absorbance was detected at a wavelength of 450 nm.

Huh-7 cells = experiment: Cell viability of liver cancer cells (Prestoblue), Huh-7; assay type: cell-based; details: 5-20 μM, 48 hours and 72 hours, compared with control (DMSO) (FIG. 3)
Description: (§3) Hepatoma cell Huh-7 was obtained from Health Science Research Resources Bank (HSRRB, Osaka. Japan; JCRB0403); Hepatoma cell PLC/PRF/5 (PLC5), Sk-Hep-1 and HCC1806 were obtained from the American Type Culture Collection (ATCC, Manassas, Va.). All cell lines are cultured immediately and frozen, so the frozen cells can be thawed every 3 months to allow experiments are conducted with the same batch of cells.
(§4) Analysis is performed using a commercial kit Prestoblue assay produced by Thermo Fisher Scientific. Three liver cancer cell lines PLC/PRF/5, SK-hep1, and Huh-7 are cultured with compound SCT-1015 for 48 hours and 72 hours, respectively. […] The results support that the compound of the present invention can activate AMPK to inhibit the proliferation of liver cancer cells.

[2] = Treatment of diet-induced obesity (DIO) mice, body weight; assay type: in vivo; details: compared to the control group of mice (FIG. 6)
Source text: The male mice C57BL/6 were purchased from the National Laboratory Animal Center (NLAC, Taipei, Taiwan) and fed high-fat-die for 4 weeks to establish the diet-induced obesity (DIO) mouse model for subsequent experiments

PLC/PRF/5 (PLC5) cells = experiment: Cell viability of liver cancer cells (Prestoblue), PLC5; assay type: cell-based
Description: as §3, §4

[3] = molecular target: T1, AMPKα1 immunoprecipitated protein extract (Homo sapiens, UniProt Q13131); experiment: AMPK enzyme activity assay (SAMS peptide), AMPKα1 immunoprecipitated from PLC5 protein extract; assay type: biochemical; details: 20-20,000 nM compound; compared to the group without compound addition (FIG. 1A)
T1 construct: AMPKα1 immunoprecipitated protein extract; endogenous in cells; host or cells: PLC5 liver cancer cells (immunoprecipitate on Protein A/G magnetic beads)
T1 sequence (Q13131 whole entry): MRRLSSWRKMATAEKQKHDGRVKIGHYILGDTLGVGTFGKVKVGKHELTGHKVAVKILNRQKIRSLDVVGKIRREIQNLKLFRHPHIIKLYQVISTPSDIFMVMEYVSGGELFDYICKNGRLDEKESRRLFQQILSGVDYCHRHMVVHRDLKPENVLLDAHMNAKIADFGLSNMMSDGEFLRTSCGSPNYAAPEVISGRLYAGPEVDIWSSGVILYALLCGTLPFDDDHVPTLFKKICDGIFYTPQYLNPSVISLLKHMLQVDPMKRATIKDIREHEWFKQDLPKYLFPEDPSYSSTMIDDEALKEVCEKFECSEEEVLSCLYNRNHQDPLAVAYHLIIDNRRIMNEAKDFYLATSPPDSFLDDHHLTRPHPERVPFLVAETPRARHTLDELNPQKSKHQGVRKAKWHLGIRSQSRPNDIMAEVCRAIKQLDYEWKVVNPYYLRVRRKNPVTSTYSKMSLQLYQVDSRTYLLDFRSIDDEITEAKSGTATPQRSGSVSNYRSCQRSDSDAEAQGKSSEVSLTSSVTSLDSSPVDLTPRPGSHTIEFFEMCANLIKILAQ
T1 sequence (Q9Y478 2-270 partner limits assumed): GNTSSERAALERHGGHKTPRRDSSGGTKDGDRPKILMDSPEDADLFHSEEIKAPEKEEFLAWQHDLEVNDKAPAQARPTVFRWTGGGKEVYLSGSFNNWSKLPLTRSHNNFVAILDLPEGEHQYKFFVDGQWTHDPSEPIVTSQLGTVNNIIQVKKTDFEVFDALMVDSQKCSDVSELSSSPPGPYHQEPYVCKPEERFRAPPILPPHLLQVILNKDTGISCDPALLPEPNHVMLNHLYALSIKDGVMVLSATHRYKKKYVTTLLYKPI
T1 sequence (P54619 whole entry partner): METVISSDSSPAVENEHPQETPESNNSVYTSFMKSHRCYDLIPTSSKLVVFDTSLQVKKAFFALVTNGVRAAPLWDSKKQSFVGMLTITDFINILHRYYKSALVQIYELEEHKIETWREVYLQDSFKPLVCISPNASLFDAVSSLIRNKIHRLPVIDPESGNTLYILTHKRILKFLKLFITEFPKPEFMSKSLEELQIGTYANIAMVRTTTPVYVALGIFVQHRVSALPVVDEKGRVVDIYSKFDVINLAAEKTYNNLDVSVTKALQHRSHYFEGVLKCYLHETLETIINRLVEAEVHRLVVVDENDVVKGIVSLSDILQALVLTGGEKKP
Description: as §1, §2

HCC1806/luc2 cells = experiment: In situ triple negative breast cancer mouse model (HCC1806/luc2-bearing orthotopic mice), IVIS; assay type: in vivo; details: 20 mg/kg, fed daily for 14 days (FIG. 4)
Description: An in situ triple negative breast cancer mouse model (HCC1806/luc2-bearing orthotopic mice) is established with HCC1806 cells carrying the luciferase (luc2) gene. The experimental mice are divided into two groups, namely (1) control group: solvent; (2) experimental group: compound SCT-1015 (20 mg/kg), and the mice are fed daily for 14 days. On day 0 and day 14, the substrate of luciferase is injected into the peritoneal cavity of mice, and the luminescence from HCC1806/luc2 cells is detected by in vivo imaging system (IVIS) to monitor cell growth.
The results support that the compound of the present invention can activate AMPK to inhibit the growth of triple-negative breast cancer cells.

SK-hep1 cells = experiment: Cell viability of liver cancer cells (Prestoblue), SK-hep1; assay type: cell-based; details: 5-20 μM, 48 hours and 72 hours, compared with control (DMSO) (FIG. 3)
Description: as §3, §4

undifferentiated cells = experiment: Morphology of undifferentiated cells in the adipocyte culture; assay type: cell-based; details: 2.5 μM (FIG. 5B)
Description: (§5) According to the standard procedure of adipocyte differentiation, human pre-adipocytes are treated with adipogenesis reagent (Gibco StemPro) for 14 days to induce differentiation into mature adipocytes. Next, mature adipocytes are treated with different concentrations of compound SCT-1015 (100 μM, 25 μM, 12.5 μM, 5 μM, and 2.5 μM), solvent only (Mock), or non-treated and cultivated for 48 hours. Then, the adipocytes are stained with adipoRed (Lonza inc.), and the cell number is evaluated by fluorescence signals measured at excited and emission wavelength are 485 nm and 572 nm, respectively. In addition, after the cells were treated with 2.5 μM. of the compound SCT-1015, the cell morphology was also observed through cell imaging.

[4] = test system: phosphorylated AMPKα (p-AMPKα); experiment: Detection of AMPK phosphorylation by immuno-blot assay; assay type: cell-based; details: PLC5, MDA-MB-231 and MDA-MB-453 cells; compared with the non-treated group (FIGS. 2A-2C)
Description: (§6) The liver cancer cell PCL5 and the triple negative breast cancer cell (TNBC) MBA-MB-231 and MDA-MB-453 are cultured with the compound SCT-1015, respectively. The cells are collected, wash, and lysed by RIPA buffer to obtain a protein extract. The protein concentration was measured by Bio-Rad Protein Assay dye reagent (Bio-Rad). The protein samples are diluted with 2 times SDS-loading buffer (100 mM Tris HCl, pH 6.8, 200 mM β-mercaptoethanol, 4% SDS, 0.02% bromophenol blue, and 20% glycerol) to adjust volume, and electrophoresis is carried out using 10% SDS polyacrylamide gels and followed by transferring to PVDF membrane. The primary antibody is added to detect the target protein on the membrane, and then the secondary antibody with horseradish peroxidase is added, followed by addition of substrate (enhanced SuperSignal West Pico Cheminluminescent Substrate, Pierce) to obtain the signal of the specific protein. and the protein content is determined by β-actin. The β-actin is used as an internal control for protein amount.

HIF1 and PDHK1 = experiment: Immuno-blot of downstream signaling molecules in liver cancer cell lines; assay type: cell-based; details: PLC/PRF/5, SK-hep1 and Huh-7 (FIG. 2D)
Description: as §6

mature adipocytes = experiment: Cell growth of adipocytes (adipoRed staining, cell imaging); assay type: cell-based, human
Description: as §5

Chain of recombinant protein human AMPK (α1, β1, γ1) (Q13131 whole entry): as the sequence (Q13131 whole entry) above
Chain of recombinant protein human AMPK (α1, β1, γ1) (Q9Y478 whole entry partner): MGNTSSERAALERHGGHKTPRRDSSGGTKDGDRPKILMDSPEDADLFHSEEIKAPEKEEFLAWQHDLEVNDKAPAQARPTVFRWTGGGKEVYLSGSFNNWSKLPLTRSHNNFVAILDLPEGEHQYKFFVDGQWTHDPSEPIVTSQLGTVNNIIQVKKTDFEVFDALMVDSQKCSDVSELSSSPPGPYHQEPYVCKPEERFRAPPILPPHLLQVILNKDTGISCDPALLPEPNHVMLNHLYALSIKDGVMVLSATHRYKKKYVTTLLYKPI
Chain of recombinant protein human AMPK (α1, β1, γ1) (P54619 whole entry partner): as the sequence (P54619 whole entry partner) above

With O=C(Nc1cccc(Nc2nccc(-c3ccc[nH]3)n2)c1)Nc1ccc(Cl)c(C(F)(F)F)c1 [SCT-1015, 1-(3-((4-(1H-pyrrol-2-yl)pyrimidin-2-yl)amino)phenyl)-3-(4-chloro-3-(trifluoromethyl)phenyl)urea] the “activity of the recombinant protein AMPKα1/β1/γ1” value [1] was “significant increase”, the “AMPK T172 activity” value (AMPK T172) was 1.8 fold and the cell proliferation (Huh-7 cells) was “inhibit the cell proliferation significantly”. For the same compound, the body weight lost [2] was 5%, the IC50 (PLC/PRF/5 (PLC5) cells; PLC5 cells, 48 hr) was 12.1 µM and the cell proliferation (PLC/PRF/5 (PLC5) cells; PLC/PRF/5, 5-20 μM, 48 hours and 72 hours, compared with control (DMSO) (FIG. 3)) was “inhibit the cell proliferation significantly”. The AMPK activity [3] was “significant increase”, the “number of HCC1806/luc2 cell on day 14 compared to control group” value (HCC1806/luc2 cells) was “significantly less” and the “number of HCC1806/luc2 cell on day 14 compared to day 0” value (HCC1806/luc2 cells) was “does not show noteworthy increase”. The cell proliferation (SK-hep1 cells) was “inhibit the cell proliferation significantly”, the “cell morphology of undifferentiated cells” value (undifferentiated cells) was “maintain a healthy cell morphology” and the “expression of phosphorylated AMPKα (p-AMPKα)” value [4] was “significantly increased”. The “regulation of downstream signaling molecules HIF1 and PDHK1” value (HIF1 and PDHK1) was “regulates the downstream signaling molecules HIF1 and PDHK1”, the “cell morphology of mature adipocytes” value (mature adipocytes; 2.5 μM (FIG. 5B)) was “shrinkage and death” and the “number of the mature adipocytes” value (mature adipocytes; 2.5-100 μM, 48 hours, compared to control (Mock), dose-dependent (FIG. 5A)) was “significantly decreased”.
